Measured values taken from ChEMBL document CHEMBL1201862, “PubChem BioAssay data set” (2004).
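Growth conditions: 96-well plates. Treatment: test compound, 48 hours, 5 concentrations. Analysis: linear interpolation between bracketing concentrations; unreached endpoints set to highest concentration. GI50 = concentration required for 50% inhibition of growth.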 Calls of active or inactive are those of the source. Rule as the data show it: active = GI50 up to about 1.1 µM and inactive = higher.

Tests used:
Experiment in all cases: DTP human tumour cell line panel, 48 h
[1] = system: MOLT-4
[2] = system: U-251
[3] = system: SF-295
[4] = system: M14
[5] = system: SNB-78
[6] = system: RPMI-8226
[7] = system: UACC-62
[8] = system: SK-MEL-28
[9] = system: NCI-H522
[10] = system: OVCAR-4
[11] = system: OVCAR-3
[12] = system: KM-20L2
[13] = system: HCC 2998
[14] = system: NCI-H460
[15] = system: COLO 205
[16] = system: KM12
[17] = system: DMS-114
[18] = system: IGROV-1
[19] = system: HL-60
[20] = system: HCT-116
[21] = system: SR
[22] = system: HOP-92
[23] = system: UO-31
[24] = system: OVCAR-5
[25] = system: HOP-62
[26] = system: HT-29
[27] = system: SK-OV-3
[28] = system: SNB-75
[29] = system: LXFL 529
[30] = system: SNB-19
[31] = system: NCI-H23
[32] = system: SF-539
[33] = system: SK-MEL-2
[34] = system: M19-MEL
[35] = system: ACHN
[36] = system: UACC-257
[37] = system: K562
[38] = system: SF-268
[39] = system: 786-0
[40] = system: HCT-15
[41] = system: Malme-3M
[42] = system: NCI-H226
[43] = system: TK-10
[44] = system: CAKI-1
[45] = system: SK-MEL-5
[46] = system: DLD-1
[47] = system: CCRF-CEM
[48] = system: SW-620
[49] = system: OVCAR-8
[50] = system: DMS-273
[51] = system: A549
[52] = system: MDA-MB-231
[53] = system: DU-145
[54] = system: NCI/ADR-RES
[55] = system: PC-3
[56] = system: SN12C
[57] = system: MCF7
[58] = system: A498
[59] = system: Hs-578T
[60] = system: MDA-N
[61] = system: T47D
[62] = system: BT-549
[63] = system: EKVX
[64] = system: MDA-MB-435
[65] = system: LOX IMVI
[66] = system: RXF 393

Cc1cnc2cc(Cl)ccc2c1NCCN(CC(C)C)CC(C)C
GI50 [1]: > 100 µM (inactive)
GI50 [2]: > 100 µM (inactive)
GI50 [3]: 32.7 µM (inactive)
GI50 [4]: > 100 µM (inactive)
GI50 [5]: 41.1 µM (inactive)
GI50 [6]: 13.6 µM (inactive)
GI50 [7]: > 100 µM (inactive)
GI50 [8]: > 100 µM (inactive)
GI50 [9]: 13.1 µM (inactive)
GI50 [10]: > 100 µM (inactive)
GI50 [11]: 13.3 µM (inactive)
GI50 [12]: 17.5 µM (inactive)
GI50 [13]: > 100 µM (inactive)
GI50 [14]: > 100 µM (inactive)
GI50 [15]: > 100 µM (inactive)
GI50 [16]: > 100 µM (inactive)
GI50 [17]: 8.18 µM (inactive)
GI50 [18]: > 100 µM (inactive)
GI50 [19]: 9.75 µM (inactive)
GI50 [20]: 78.7 µM (inactive)
GI50 [21]: > 100 µM (inactive)
GI50 [22]: 11.1 µM (inactive)
GI50 [23]: 9.23 µM (inactive)
GI50 [24]: > 100 µM (inactive)
GI50 [25]: 67.6 µM (inactive)
GI50 [26]: 8.3 µM (inactive)
GI50 [27]: > 100 µM (inactive)
GI50 [28]: > 100 µM (inactive)
GI50 [29]: 59.8 µM (inactive)
GI50 [30]: > 10 µM (inactive)
GI50 [31]: 95.3 µM (inactive)
GI50 [32]: > 100 µM (inactive)
GI50 [33]: > 100 µM (inactive)
GI50 [34]: > 100 µM (inactive)
GI50 [35]: > 100 µM (inactive)
GI50 [36]: > 100 µM (inactive)
GI50 [37]: 9.53 µM (inactive)
GI50 [38]: > 100 µM (inactive)

COC(=O)[C@H]1[C@H]2C[C@@H]3c4[nH]c5cc(OC)ccc5c4CCN3C[C@H]2C[C@@H](OC(=O)c2cc(OC)c(OC)c(OC)c2)[C@@H]1OC [RESERPINE]
GI50 [1]: 7.19 µM (inactive)
GI50 [39]: 14.2 µM (inactive)
GI50 [2]: 15 µM (inactive)
GI50 [3]: 17.7 µM (inactive)
GI50 [4]: 15.4 µM (inactive)
GI50 [6]: 6.9 µM (inactive)
GI50 [7]: 13.3 µM (inactive)
GI50 [8]: > 10 µM (inactive)
GI50 [9]: 17.9 µM (inactive)
GI50 [10]: 12.7 µM (inactive)
GI50 [11]: 18.3 µM (inactive)
GI50 [40]: 20.3 µM
GI50 [41]: 17.5 µM (inactive)
GI50 [12]: 16.7 µM (inactive)
GI50 [13]: 27.8 µM (inactive)
GI50 [14]: 18.9 µM (inactive)
GI50 [42]: 19.6 µM (inactive)
GI50 [15]: 15.7 µM (inactive)
GI50 [16]: 18.4 µM (inactive)
GI50 [17]: 15.6 µM (inactive)
GI50 [18]: 21.5 µM (inactive)
GI50 [43]: 17.5 µM (inactive)
GI50 [19]: 14.2 µM (inactive)
GI50 [44]: 18.1 µM (inactive)
GI50 [20]: 13.7 µM (inactive)
GI50 [45]: 15.7 µM (inactive)
GI50 [21]: 6.12 µM (inactive)
GI50 [46]: 30.5 µM (inactive)
GI50 [22]: 10.8 µM (inactive)
GI50 [47]: 13.2 µM (inactive)
GI50 [23]: 15.1 µM (inactive)
GI50 [24]: 38 µM (inactive)
GI50 [25]: 12.6 µM (inactive)
GI50 [26]: 12 µM (inactive)
GI50 [28]: 2.7 µM (inactive)
GI50 [29]: 14.4 µM (inactive)
GI50 [30]: 16.2 µM (inactive)
GI50 [31]: 18.1 µM (inactive)
GI50 [32]: 11.6 µM (inactive)
GI50 [33]: 19.3 µM (inactive)
GI50 [34]: 20.9 µM (inactive)
GI50 [35]: 15 µM (inactive)
GI50 [48]: 26.8 µM (inactive)
GI50 [49]: 19.6 µM (inactive)
GI50 [36]: 15.6 µM (inactive)
GI50 [37]: 7.11 µM (inactive)
GI50 [38]: 28.1 µM (inactive)
GI50 [50]: 20 µM (inactive)
GI50 [51]: 18 µM (inactive)

CC(C)n1c2c([n+](C)c1/C=C/c1ccccc1)C(=O)c1ccccc1C2=O
GI50 [52]: 0.166 µM (active)
GI50 [53]: 0.34 µM (active)
GI50 [1]: 0.0504 µM (active)
GI50 [54]: 48.6 µM (inactive)
GI50 [39]: 0.259 µM (active)
GI50 [2]: 0.147 µM (active)
GI50 [55]: 0.149 µM (active)
GI50 [3]: 0.916 µM (active)
GI50 [4]: 0.318 µM (active)
GI50 [56]: 0.0495 µM (active)
GI50 [5]: 0.0389 µM (active)
GI50 [6]: 0.0575 µM (active)
GI50 [7]: 0.198 µM (active)
GI50 [8]: 0.312 µM (active)
GI50 [9]: 0.0201 µM (active)
GI50 [10]: 0.0278 µM (active)
GI50 [57]: 0.0516 µM (active)
GI50 [11]: < 0.01 µM (active)
GI50 [40]: 3.67 µM
GI50 [41]: 0.107 µM (active)
GI50 [12]: 0.0955 µM (active)
GI50 [13]: 0.272 µM (active)
GI50 [14]: 0.36 µM (active)
GI50 [42]: 0.791 µM (active)
GI50 [15]: < 0.01 µM (active)
GI50 [16]: 0.132 µM (active)
GI50 [17]: < 0.0148 µM (active)
GI50 [58]: 0.611 µM (active)
GI50 [18]: 0.0157 µM (active)
GI50 [43]: 0.538 µM (active)
GI50 [19]: 0.02 µM (active)
GI50 [44]: 2.79 µM (inactive)
GI50 [20]: 0.0748 µM (active)
GI50 [59]: 1.91 µM (inactive)
GI50 [45]: 0.07 µM (active)
GI50 [60]: 0.299 µM (active)
GI50 [21]: 0.257 µM (active)
GI50 [46]: 0.426 µM (active)
GI50 [22]: 0.309 µM (active)
GI50 [61]: 0.0397 µM (active)
GI50 [47]: 0.0743 µM (active)
GI50 [62]: 0.241 µM (active)
GI50 [23]: 3.55 µM (inactive)
GI50 [24]: 0.501 µM (active)
GI50 [63]: 0.206 µM (active)
GI50 [64]: 0.237 µM (active)
GI50 [25]: 0.398 µM (active)
GI50 [26]: 0.0875 µM (active)
GI50 [27]: 0.299 µM (active)
GI50 [28]: 0.419 µM (active)
GI50 [29]: 0.0861 µM (active)
GI50 [30]: 0.223 µM (active)
GI50 [31]: 0.0908 µM (active)
GI50 [32]: 0.0334 µM (active)
GI50 [33]: 0.116 µM (active)
GI50 [34]: 0.125 µM (active)
GI50 [35]: 2 µM (inactive)
GI50 [65]: 0.0721 µM (active)
GI50 [48]: 0.0501 µM (active)
GI50 [49]: 0.07 µM (active)
GI50 [36]: 0.0398 µM (active)
GI50 [37]: 0.0592 µM (active)
GI50 [38]: 0.0703 µM (active)
GI50 [66]: 0.322 µM (active)
GI50 [50]: 0.0348 µM (active)
GI50 [51]: 0.587 µM (active)
